# Measurements reported in PMC9628931 (Chemical Science, 2022).
# What was measured:
# AsAKS2 (BAHD5, 37058_t) = biological target: T1, AsAKS2 (BAHD5, 37058_t) (Alstonia scholaris, UniProt A0A9E7LUL3); assay: LCMS detection of akuammiline; assay type: biochemical; conditions: co-substrate rhazimol
# T1 sequence (A0A9E7LUL3 1-450): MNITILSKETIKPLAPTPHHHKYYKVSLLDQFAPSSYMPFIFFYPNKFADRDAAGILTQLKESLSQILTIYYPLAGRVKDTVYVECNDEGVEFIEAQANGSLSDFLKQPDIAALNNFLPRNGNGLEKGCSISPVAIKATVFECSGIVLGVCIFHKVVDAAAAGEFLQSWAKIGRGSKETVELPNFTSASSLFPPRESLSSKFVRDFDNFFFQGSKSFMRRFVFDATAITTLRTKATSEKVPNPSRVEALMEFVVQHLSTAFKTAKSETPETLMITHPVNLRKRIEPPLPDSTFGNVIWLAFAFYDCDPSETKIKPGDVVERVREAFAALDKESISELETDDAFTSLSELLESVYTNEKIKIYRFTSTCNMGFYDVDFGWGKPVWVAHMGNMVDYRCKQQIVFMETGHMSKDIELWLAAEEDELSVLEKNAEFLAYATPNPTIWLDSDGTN
# AsAKS1 (BAHD3, 43565_t) = biological target: T2, AsAKS1 (BAHD3, 43565_t) (Alstonia scholaris, UniProt A0A9E7S5E3); assay: LCMS detection of akuammiline; assay type: biochemical; conditions: co-substrate rhazimol
# T2 sequence (A0A9E7S5E3 1-419): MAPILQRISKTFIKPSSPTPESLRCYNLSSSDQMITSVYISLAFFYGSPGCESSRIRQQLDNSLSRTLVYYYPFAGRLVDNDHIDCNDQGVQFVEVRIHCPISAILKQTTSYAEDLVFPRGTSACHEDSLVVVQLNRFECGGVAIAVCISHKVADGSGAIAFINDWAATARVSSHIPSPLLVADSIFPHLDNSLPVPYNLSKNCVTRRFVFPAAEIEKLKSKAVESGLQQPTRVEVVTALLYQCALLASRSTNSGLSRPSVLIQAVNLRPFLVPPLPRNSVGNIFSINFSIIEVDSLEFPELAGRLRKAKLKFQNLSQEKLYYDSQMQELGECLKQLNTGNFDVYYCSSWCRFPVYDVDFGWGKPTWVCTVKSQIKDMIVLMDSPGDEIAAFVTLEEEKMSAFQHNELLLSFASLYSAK
structure (smiles),measurement,setting,value
CC(=O)SCCNC(=O)CCNC(=O)[C@H](O)C(C)(C)COP(=O)(O)OP(=O)(O)OC[C@H]1O[C@@H](n2cnc3c(N)ncnc32)[C@H](O)[C@@H]1OP(=O)(O)O [acetyl-CoA],LCMS detection of akuammiline,"AsAKS2 (BAHD5, 37058_t)",The BAHD candidates were assayed by incubation with rhazimol and acetyl-CoA
same,LCMS detection of akuammiline,"AsAKS1 (BAHD3, 43565_t)",The BAHD candidates were assayed by incubation with rhazimol and acetyl-CoA
